Results as given in US20250263457A1, “Pharmaceutical Composition for Preventing and Treating Liver Disease Comprising Novel Peptide” (Pusan National University Industry-University Cooperation …, priority 2024, published 2025).

Tested on: CD44
Assay: Western blot of CD44ICD in nuclear proteins of human pHSCs (CD44 cleavage)
Format: cell-based
Settings: 40 ng/ml, 24 hours, vs control (FIG. 3A)
Description: Specifically, pHSCs were treated with peptide YJ (40 ng/ml) for 0, 6, 12, or 24 hours, and then nuclear proteins were isolated. Western blotting was performed on the isolated nuclear proteins to confirm the expression of CD44 and CD44ICD. The nuclear proteins were obtained by a nuclear protein fractionation method.
At this time, the primary antibodies were used with anti-CD44 antibody (Abcam, ab157107), anti-CD44ICD antibody (Cosmo Bio, KAL-KO601), and anti-LAMIN B1 antibody (Abcam, ab16048), and the secondary antibody was used with Goat anti-Rabbit IgG antibody (HRP conjugate) (Enzo, ADI-SAB-300-J). In addition, human pHSCs treated with PBS were used as a control group. The CD44 and CD44ICD expression results were normalized to the expression level of LAMIN B1, which was an internal control group, and expressed as mean±SEM values obtained from the same experiment repeated three times.

peptide YJ: TSG-6 fragment: core domain RSGKYKLTYAEAKA plus C-terminal extension VCEFEGGHLATYKQLEAARKIGFHVCAAGWMAK (SEQ ID NO: 9); TSG-6 mimetic (RSGKYKLTYAEAKAVCEFEGGHLATYKQLEAARKIGFHVCAAGWMAK; peptide 4)
nuclear expression and accumulation of CD44ICD: significantly reduced
